Assay results taken from patent EP4745134A1 (Jiangsu Yahong Meditech Co., Ltd., priority 2023, dated 2025).
pIC50: −log10 of the molar value. Where two headings read alike, the source gives them in different places.

Experiments:
PRMT5-MTA = PRMT5-MTA (Homo sapiens, UniProt O14744); assay: Enzymatic inhibitory activity against PRMT5-MTA (AlphaScreen); assay type: biochemical
Summary of the method: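 PRMT5/[…] (1 nM) was preincubated for 30 min at room temperature with 1 µM […] and 2.5 µM SAM, then exposed to compound (10-point, 3-fold from 1000 nM) for 15 min at 23 °C. Histone H4 substrate (5 nM) was added and reacted for 45 min at 23 °C. Symmetric dimethyl-R3 H4 was detected by AlphaScreen and IC50 calculated.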

HCT116 MTAP KO cells = assay: Inhibitory activity against cell proliferation (CellTiter Glo, 6 days), HCT116 MTAP KO; assay type: cell-based; conditions: for pIC50: Homo sapiens, HCT-116, 144 h, HCT116 MTAP KO cells, 6 days, CellTiter Glo, read-out: HCT116 MTAP KO IC50; for Selectivity HCT 116-WT/ HCT116 MTAP KO: ratio of IC50 HCT116-WT / HCT116 MTAP KO
Summary of the method: (§1)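 HCT116 wild-type or MTAP-knockout cells (250/well, McCoy's 5A + 10% FBS) treated after overnight culture with 8-point 4-fold dilutions from 10000 nM for 6 days at 37 °C. Viability read by CellTiter Glo luminescence on day 7; IC50 calculated against DMSO controls.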

HCT116-WT cells = assay: Inhibitory activity against cell proliferation (CellTiter Glo, 6 days), HCT116-WT; assay type: cell-based; conditions: 144 h, HCT116-WT cells, 6 days, CellTiter Glo; read-out: HCT116-WT IC50
Summary of the method: as §1

PRMT5-MTA, sequence (O14744 whole entry): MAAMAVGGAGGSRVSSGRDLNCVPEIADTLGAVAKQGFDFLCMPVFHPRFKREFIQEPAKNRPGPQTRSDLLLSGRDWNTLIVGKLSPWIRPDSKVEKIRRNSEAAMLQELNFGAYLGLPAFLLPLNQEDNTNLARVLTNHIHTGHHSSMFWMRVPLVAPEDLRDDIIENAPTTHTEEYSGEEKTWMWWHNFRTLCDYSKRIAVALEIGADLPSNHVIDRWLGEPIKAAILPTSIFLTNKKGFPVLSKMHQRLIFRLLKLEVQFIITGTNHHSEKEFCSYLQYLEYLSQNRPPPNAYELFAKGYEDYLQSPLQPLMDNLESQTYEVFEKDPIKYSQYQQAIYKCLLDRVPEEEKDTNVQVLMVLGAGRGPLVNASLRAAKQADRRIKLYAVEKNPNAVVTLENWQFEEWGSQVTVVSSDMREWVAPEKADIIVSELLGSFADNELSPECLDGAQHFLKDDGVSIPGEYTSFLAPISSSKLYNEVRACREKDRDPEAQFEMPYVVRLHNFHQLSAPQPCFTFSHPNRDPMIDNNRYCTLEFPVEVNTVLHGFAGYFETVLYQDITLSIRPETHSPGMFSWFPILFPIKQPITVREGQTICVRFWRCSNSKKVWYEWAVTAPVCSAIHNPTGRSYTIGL
PRMT5-MTA, sequence (Q9BQA1 whole entry partner): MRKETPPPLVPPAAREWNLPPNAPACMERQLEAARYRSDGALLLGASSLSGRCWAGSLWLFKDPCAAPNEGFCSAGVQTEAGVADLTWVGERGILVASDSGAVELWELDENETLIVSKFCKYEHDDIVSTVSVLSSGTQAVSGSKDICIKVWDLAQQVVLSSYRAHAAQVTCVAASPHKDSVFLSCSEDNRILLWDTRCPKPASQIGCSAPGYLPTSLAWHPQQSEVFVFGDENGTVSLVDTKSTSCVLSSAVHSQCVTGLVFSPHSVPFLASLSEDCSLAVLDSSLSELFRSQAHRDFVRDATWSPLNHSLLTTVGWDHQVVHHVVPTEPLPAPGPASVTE

## Cc1cc2nc(N)c3cnn(C)c3c2cc1C(=O)N1CC(C)CN1c1cccc(Br)n1 (centres unmarked) [Example 404, (4-amino-1,7-dimethyl-1H-pyrazolo[4,3-c]quinolin-8-yl)(2-(6-bromopyridin-2-yl) -4-methylpyrazolidin-1-yl)methanone]
PRMT5-MTA; read-out: IC50
  pIC50: 8.18
HCT116 MTAP KO cells
  pIC50: 8.34
  Selectivity HCT 116-WT/ HCT116 MTAP KO: 24.78
HCT116-WT cells
  pIC50: 6.94

## Cc1cc2nc(N)c3cnn(C)c3c2cc1C(=O)N1CC(C)CN1c1cccc(C2CC2)n1 (centres unmarked) [Example 405, (4-amino-1,7-dimethyl-1H-pyrazolo[4,3-c]quinolin-8-yl)(2-(6-cyclopropylpyridin-2-yl) -4-methylpyrazolidin-1-yl)methanone]
PRMT5-MTA; read-out: IC50
  pIC50: 7.91
HCT116 MTAP KO cells
  pIC50: 7.54
  Selectivity HCT 116-WT/ HCT116 MTAP KO: 31.93
HCT116-WT cells
  pIC50: 6.03

## COc1cccc(N2CC(C)CN2C(=O)c2cc3c(cc2C)nc(N)c2cnn(C)c23)n1 (centres unmarked) [Example 406]
PRMT5-MTA
  pIC50: 8.37
HCT116 MTAP KO cells
  pIC50: 7.64
  Selectivity HCT 116-WT/ HCT116 MTAP KO: 39.39
HCT116-WT cells
  pIC50: 6.04

## Cc1cc2nc(N)c3cnn(C)c3c2cc1C(=O)N1CC(CC(F)(F)F)CN1c1ncccc1F (centres unmarked) [Example 408]
PRMT5-MTA
  pIC50: 8.32
HCT116 MTAP KO cells
  pIC50: 8.00
  Selectivity HCT 116-WT/ HCT116 MTAP KO: 20.30
HCT116-WT cells
  pIC50: 6.69

## Cc1cc2nc(N)c3cnn(C)c3c2cc1C(=O)N1CC2(CN1c1ncccc1F)CC(F)(F)C2 [Example 410, (4-amino-1,7-dimethyl-1H-pyrazolo[4,3-c]quinolin-8-yl)(2,2-difluoro-7-(3-fluoropyridin-2-yl)-6,7-diazaspiro[3.4]octan-6-yl)methanone]
PRMT5-MTA; read-out: IC50
  pIC50: 8.28
HCT116 MTAP KO cells
  pIC50: 8.05
  Selectivity HCT 116-WT/ HCT116 MTAP KO: 24.33
HCT116-WT cells
  pIC50: 6.66

## Cn1ncc2c(N)nc3cc(Cl)c(C(=O)N4CC5(CN4c4ncccc4F)CC(F)(F)C5)cc3c21 [Example 411, (4-amino-7-chloro-1-methyl-1H-pyrazolo [4,3-c]quinolin-8-yl)(2,2-difluoro-7-(3-fluoropyridin-2-yl)-6,7-diazaspiro[3.4]octan-6-yl)methanone]
PRMT5-MTA; read-out: IC50
  pIC50: 8.20
HCT116 MTAP KO cells
  pIC50: 7.82
  Selectivity HCT 116-WT/ HCT116 MTAP KO: 14.73
HCT116-WT cells
  pIC50: 6.66

## Cn1ncc2c(N)nc3cc(Cl)c(C(=O)N4CC5(CN4c4ncc(Cl)cc4F)CC(F)(F)C5)cc3c21 [Example 412, (4-amino-7-chloro-1-methyl-1H-pyrazolo [4,3-c]quinolin-8-yl)(7-(5-chloro-3-fluoropyridin-2-yl)-2,2-difluoro-6,7-diazaspiro[3.4]octan-6-yl)methanone]
PRMT5-MTA; read-out: IC50
  pIC50: 8.21
HCT116 MTAP KO cells
  pIC50: 8.00
  Selectivity HCT 116-WT/ HCT116 MTAP KO: 17.90
HCT116-WT cells
  pIC50: 6.75

## Cn1ncc2c(N)nc3cc(Cl)c(C(=O)N4CC5(CN4c4ncc(Br)cc4F)CC(F)(F)C5)cc3c21 [Example 413, (4-amino-7-chloro-1-methyl-1H-pyrazolo [4,3-c]quinolin-8-yl)(7-(5-bromo-3-fluor opyridin-2-yl)-2,2-difluoro-6,7-diazaspiro[3.4]octan-6-yl)methanone]
PRMT5-MTA; read-out: IC50
  pIC50: 8.37
HCT116 MTAP KO cells
  pIC50: 7.59
  Selectivity HCT 116-WT/ HCT116 MTAP KO: 15.00
HCT116-WT cells
  pIC50: 6.41

## Cn1ncc2c(N)nc3cc(Cl)c(C(=O)N4CC5(CN4c4cccc(F)n4)CC(F)(F)C5)cc3c21 [Example 414, (4-amino-7-chloro-1-methyl-1H-pyrazolo [4,3-c]quinolin-8-yl)(2,2-difluoro-7-(6-fluoropyridin-2-yl)-6,7-diazaspiro[3.4]octan-6-yl)methanone]
PRMT5-MTA; read-out: IC50
  pIC50: 8.21
HCT116 MTAP KO cells
  pIC50: 7.74
  Selectivity HCT 116-WT/ HCT116 MTAP KO: 16.94
HCT116-WT cells
  pIC50: 6.52

## CCC1CN(C(=O)c2cc3c(cc2C)nc(N)c2cnn(C)c23)N(c2ncccc2F)C1 (centres unmarked) [Example 415, (4-amino-1,7-dimethyl-1H-pyrazolo[4,3-c]quinolin-8-yl)(4-ethyl-2-(3-fluoropyridin-2-yl)pyrazolidin-1-yl)methanone]
PRMT5-MTA; read-out: IC50
  pIC50: 8.59
HCT116 MTAP KO cells
  pIC50: 7.72
  Selectivity HCT 116-WT/ HCT116 MTAP KO: 42.63
HCT116-WT cells
  pIC50: 6.09

## COC1CN(C(=O)c2cc3c(cc2C)nc(N)c2cnn(C)c23)N(c2ncccc2F)C1 (centres unmarked) [Example 417, (4-amino-1,7-dimethyl-1H-pyrazolo[4,3-c]quinolin-8-yl)(2-(3-fluoropyridin-2-yl)-4-methoxypyrazolidin-1-yl)methanone]
PRMT5-MTA; read-out: IC50
  pIC50: 8.42
HCT116 MTAP KO cells
  pIC50: 7.70
  Selectivity HCT 116-WT/ HCT116 MTAP KO: 39.50
HCT116-WT cells
  pIC50: 6.10

## Cn1ncc2c(N)nc3cc(Cl)c(C(=O)N4CC(C)(F)CN4c4ccccc4F)cc3c21 (centres unmarked) [Example 419]
PRMT5-MTA
  pIC50: 8.34
HCT116 MTAP KO cells
  pIC50: 7.85
  Selectivity HCT 116-WT/ HCT116 MTAP KO: 16.14
HCT116-WT cells
  pIC50: 6.65

## Cn1ncc2c(N)nc3cc(Cl)c(C(=O)N4CC(C)(F)CN4c4ncc(Cl)cc4F)cc3c21 (centres unmarked) [Example 421, (4-amino-7-chloro-1-methyl-1H-pyrazolo [4,3-c]quinolin-8-yl)(2-(5-chloro-3-fluoropyridin-2-yl)-4-fluoro-4-methylpyrazolidin-1-yl)methanone]
PRMT5-MTA; read-out: IC50
  pIC50: 8.48
HCT116 MTAP KO cells
  pIC50: 7.54
  Selectivity HCT 116-WT/ HCT116 MTAP KO: 23.07
HCT116-WT cells
  pIC50: 6.17

## Cc1cc2nc(N)c3cnn(C)c3c2cc1C(=O)N1CC(C)(F)CN1c1ncccc1F (centres unmarked) [Example 422, (4-amino-1,7-dimethyl-1H-pyrazolo[4,3-c]quinolin-8-yl)(4-fluoro-2-(3-fluoropyridin-2-yl)-4-methylpyrazolidin-1-yl)metha none]
PRMT5-MTA; read-out: IC50
  pIC50: 8.03
HCT116 MTAP KO cells
  pIC50: 7.68
  Selectivity HCT 116-WT/ HCT116 MTAP KO: 38.38
HCT116-WT cells
  pIC50: 6.09

## CCC1(F)CN(C(=O)c2cc3c(cc2C)nc(N)c2cnn(C)c23)N(c2ncccc2F)C1 (centres unmarked) [Example 423, (4-amino-1,7-dimethyl-1H-pyrazolo[4,3-c]quinolin-8-yl)(4-ethyl-4-fluoro-2-(3-fluoropyridin-2-yl)pyrazolidin-1-yl)methanone]
PRMT5-MTA; read-out: IC50
  pIC50: 8.17
HCT116 MTAP KO cells
  pIC50: 7.60
  Selectivity HCT 116-WT/ HCT116 MTAP KO: 27.28
HCT116-WT cells
  pIC50: 6.17

## Cn1ncc2c(N)nc3cc(Cl)c(C(=O)N4CC(C)(F)CN4c4ncc(F)cc4F)cc3c21 (centres unmarked) [Example 424, (4-amino-7-chloro-1-methyl-1H-pyrazolo [4,3-c]quinolin-8-yl)(2-(3,5-2 fluoropyridin-2-yl)-4-fluoro-4-methylpyrazolidin-1-yl)methanone]
PRMT5-MTA; read-out: IC50
  pIC50: 8.14
HCT116 MTAP KO cells
  pIC50: 7.64
  Selectivity HCT 116-WT/ HCT116 MTAP KO: 16.26
HCT116-WT cells
  pIC50: 6.43

## Cn1ncc2c(N)nc3cc(Cl)c(C(=O)N4CC(C)(F)CN4c4ncccc4F)cc3c21 (centres unmarked) [Example 425, (4-amino-7-chloro-1-methyl-1H-pyrazolo [4,3-c]quinolin-8-yl)(4-fluoro-2-(3-fluoropyridin-2-yl)-4-methylpyrazolidin-1-yl)m ethanone]
PRMT5-MTA; read-out: IC50
  pIC50: 8.08
HCT116 MTAP KO cells
  pIC50: 7.27
  Selectivity HCT 116-WT/ HCT116 MTAP KO: 15.74
HCT116-WT cells
  pIC50: 6.07

## Cc1cc2nc(N)c3cnn(C)c3c2cc1C(=O)N1CC(C)(O)CN1c1ncccc1F (centres unmarked) [Example 427, (4-amino-1,7-dimethyl-1H-pyrazolo[4,3-c]quinolin-8-yl)(2-(3-fluoropyridin-2-yl)-4-hydroxy-4-methylpyrazolin-1-yl)methanone]
PRMT5-MTA; read-out: IC50
  pIC50: 8.21
HCT116 MTAP KO cells
  pIC50: 6.63
  Selectivity HCT 116-WT/ HCT116 MTAP KO: >42.55
HCT116-WT cells
  pIC50: < 5.00

## C=C1CN(C(=O)c2cc3c(cc2Cl)nc(N)c2cnn(C)c23)N(c2ncc(Br)cc2F)C1 [Example 430, (4-amino-7-chloro-1-methyl-1H-pyrazolo [4,3-c]quinolin-8-yl)(2-(5-bromo-3-fluor opyridin-2-yl)-4-methylenepyrazolidin-1-yl)methanone]
PRMT5-MTA; read-out: IC50
  pIC50: 8.26
HCT116 MTAP KO cells
  pIC50: 7.66
  Selectivity HCT 116-WT/ HCT116 MTAP KO: 26.59
HCT116-WT cells
  pIC50: 6.23

## C=C1CN(C(=O)c2cc3c(cc2Cl)nc(N)c2cnn(C)c23)N(c2ccccc2F)C1 [Example 431, (4-amino-7-chloro-1-methyl-1H-pyrazolo [4,3-c]quinolin-8-yl)(2-(2-fluorophenyl)-4-methylenepyrazolidin-1-yl)methanone]
PRMT5-MTA; read-out: IC50
  pIC50: 8.27
HCT116 MTAP KO cells
  pIC50: 8.00
  Selectivity HCT 116-WT/ HCT116 MTAP KO: 24.80
HCT116-WT cells
  pIC50: 6.61

## C=C1CN(C(=O)c2cc3c(cc2Cl)nc(N)c2cnn(C)c23)N(c2ncc(F)cc2F)C1 [Example 432, (4-amino-7-chloro-1-methyl-1H-pyrazolo [4,3-c]quinolin-8-yl)(2-(3,5-2 fluoropyridin-2-yl)-4-methylenepyrazolidin-1-yl)methanone]
PRMT5-MTA; read-out: IC50
  pIC50: 8.35
HCT116 MTAP KO cells
  pIC50: 7.80
  Selectivity HCT 116-WT/ HCT116 MTAP KO: 41.06
HCT116-WT cells
  pIC50: 6.18

## C=C1CN(C(=O)c2cc3c(cc2Cl)nc(N)c2cnn(C)c23)N(c2ncccc2F)C1 [Example 433, (4-amino-7-chloro-1-methyl-1H-pyrazolo [4,3-c]quinolin-8-yl)(2-(3-fluoropyridin-2-yl)-4-methylenepyrazolidin-1-yl)methanone]
PRMT5-MTA; read-out: IC50
  pIC50: 8.42
HCT116 MTAP KO cells
  pIC50: 7.48
  Selectivity HCT 116-WT/ HCT116 MTAP KO: 33.64
HCT116-WT cells
  pIC50: 5.95

## C=C1CN(C(=O)c2cc3c(cc2Cl)nc(N)c2cnn(C)c23)N(c2ncc(Cl)cc2F)C1 [Example 434, (4-amino-7-chloro-1-methyl-1H-pyrazolo [4,3-c]quinolin-8-yl)(2-(5-chloro-3-fluoropyridin-2-yl)-4-methylenepyrazolidin-1-y 1)methanone]
PRMT5-MTA; read-out: IC50
  pIC50: 8.21
HCT116 MTAP KO cells
  pIC50: 7.44
  Selectivity HCT 116-WT/ HCT116 MTAP KO: 25.17
HCT116-WT cells
  pIC50: 6.04
